From PMC4941645, “Oxidative Stress Induced by Pt(IV) Pro-drugs Based on the Cisplatin Scaffold and Indole Carboxylic Acids in Axial Position” (Scientific Reports, 2016)

What was measured:
[1] = system: A549 lung carcinoma cells; assay: cells; conditions: A549, 72 h
Description: (§1) The cytotoxic activity of the complexes and of the uncoordinated ligands was evaluated by the MTT test on a panel of human tumor cell lines containing examples of pancreatic (BxPC3), colorectal (HCT-15), breast (MCF-7), cervical (A431), and lung (A549) cancers as well as of melanoma (A375). For comparison purposes, the cytotoxicity of cisplatin was evaluated under the same experimental conditions.
(§2) Cisplatin was dissolved in 0.9% NaCl solution.
(§3) Human breast (MCF-7), colon (HCT-15), lung (A549) and pancreatic (BxPC3) carcinoma cell lines together with melanoma (A375) cells were obtained from American Type Culture Collection (ATCC, Rockville, MD). The human ovarian cancer cell line 2008 and its cisplatin resistant variant, C13*, were kindly provided by Prof. G. Marverti (Department of Biomedical Science of Modena University, Italy). Human cervical carcinoma (A431) cells were kindly provided by Prof. F. Zunino (Division of Experimental Oncology B, Istituto Nazionale dei Tumori, Milan, Italy). Cell lines were maintained in the logarithmic phase at 37 °C in a 5% carbon dioxide atmosphere using the following culture media containing 10% fetal calf serum (Euroclone, Milan, Italy), antibiotics (50 units/mL penicillin and 50 μg/mL streptomycin) and 2 mM L-glutamine: (i) RPMI-1640 medium (Euroclone) for 2008, C13*, MCF-7, HCT-15, A431 and BxPC3 cells, (ii) F-12 HAM’S (Sigma Chemical Co.) for A549 cells, iii) DMEM (Sigma Chemical Co.) for A375 cells.
(§4) The growth inhibitory effect toward tumor cells was evaluated by means of the MTT assay. Briefly, (3–8) × 10^3 cells/well, dependent upon the growth characteristics of the cell line, were seeded in 96-well microplates in growth medium (100 μL). After 24 h, the medium was removed and replaced with fresh medium containing the compound to be studied at the appropriate concentration. Triplicate cultures were established for each treatment. After 24, 48, or 72 h, each well was treated with 10 μL of a 5 mg/mL MTT saline solution and, after 5 h of incubation, 100 μL of a sodium dodecylsulfate (SDS) solution in 0.01 M HCl was added. After an overnight incubation, cell growth inhibition was detected by measuring the absorbance of each well at 570 nm using a Bio-Rad 680 microplate reader. The mean absorbance for each drug dose was expressed as a percentage of the control, untreated well absorbance and plotted vs drug concentration. The IC50 values, the drug concentrations that decrease the mean absorbance at 570 nm to 50% of that of untreated control wells, were calculated from the dose–response curves with the four-parameter logistic model (4PL). The final value is the mean ± S.D. of at least three independent experiments performed in triplicate.

[2] = system: BxPC3 pancreatic carcinoma cells; assay: MTT cytotoxicity test, BxPC3; type: cell-based, human; conditions: BxPC3, 72 h, MTT, ± S.D.
Description: as §1, §2, §3, §4

[3] = system: panel of human tumor cell lines (BxPC3, HCT-15, MCF-7, A431, A549, A375); assay: MTT cytotoxicity, mean over panel of human tumor cell lines; type: cell-based; conditions: for IC50: mean over the six cell lines of Table 1, 72 h
Description: as §1, §4

A375 melanoma cells [4] = assay: MTT cytotoxicity test, A375; type: cell-based, human; conditions: ± S.D.
Description: as §1, §2, §3, §4

[5] = system: C13* cisplatin-resistant ovarian cancer cells; assay: MTT cytotoxicity test, cisplatin-resistant C13*; type: cell-based, human; conditions: for IC50: C13* cisplatin-resistant, 72 h, MTT, ± S.D.; for RF (resistance factor): IC50 resistant (C13*) / parent line (2008)
Description: The cytotoxic properties of the complexes were also evaluated in a pair of tumor cell lines suitably selected for their sensitivity and resistance to cisplatin (adenocarcinoma cells 2008/C13^*). Cross-resistance profiles were evaluated by means of the resistance factor (RF), defined as the ratio between IC50 values calculated for the resistant cells and those obtained with the sensitive ones (Table 2). The phenomenon of cisplatin resistance is multifactorial in nature.
as §2, §3, §4

[6] = system: 2008 ovarian cancer cells; assay: MTT cytotoxicity test, cisplatin-sensitive 2008; type: cell-based, human; conditions: 2008 cisplatin-sensitive, 72 h, ± S.D.
Description: The cytotoxic properties of the complexes were also evaluated in a pair of tumor cell lines suitably selected for their sensitivity and resistance to cisplatin (adenocarcinoma cells 2008/C13^*). Cross-resistance profiles were evaluated by means of the resistance factor (RF), defined as the ratio between IC50 values calculated for the resistant cells and those obtained with the sensitive ones (Table 2). The phenomenon of cisplatin resistance is multifactorial in nature. Nevertheless, the main molecular mechanisms involved in drug resistance in C13* cancer cells have largely been identified. Indeed, in this cell line resistance is correlated to high cellular glutathione and thioredoxin reductase levels, reduced cellular drug uptake and enhanced repair of DNA damage. […] The RF values calculated for all derivatives were six- to nine-fold lower than that of cisplatin, clearly indicating the absence of cross-resistance.
as §2
Triplicate cultures were established for each treatment.

[7] = system: A431 cervical carcinoma cells; assay: MTT cytotoxicity test, A431; type: cell-based, human; conditions: ± S.D.
Description: as §1, §2, §3, §4

[8] = Log P octanol/water, shake flask method with ICP-MS; type: physicochemical; conditions: n-octanol / 0.9% NaCl water, Pt by ICP-MS
Description: Partition coefficients (logP values) for octanol/water partition were determined in order to examine whether a correlation exists between lipophilicity and accumulation into cells. The log P values obtained (Table 3) give the trend in lipophilicity as mono indole acid complex < succinate complex < acetate complex < bis indole acid complex < benzoate complex for both the IAA and the IPA series.
The logP values of the Pt(IV) compounds were determined using the shake flask method. The respective Pt(IV) complex was dissolved in 0.9% NaCl (w/v) ultrapure water (presaturated with n-octanol). The solutions were sonicated and filtered to remove undissolved Pt(IV) compounds. The initial Pt concentrations were determined by ICP-MS. Subsequently, the Pt(IV) solutions were added to an equal volume of n-octanol (presaturated with 0.9% NaCl (w/v) ultrapure water). The heterogeneous mixtures were shaken vigorously for 30 min before centrifuging at 4000 rpm for 30 min to achieve phase separation. The final Pt concentration in the aqueous phase was determined again by ICP-MS. The logarithm of the ratio of Pt concentrations in the organic and aqueous phases was calculated to determine the logP values. All experiments were done in duplicate.

[9] = system: MCF-7 breast carcinoma cells; assay: MTT cytotoxicity test, MCF-7; type: cell-based, human; conditions: ± S.D.
Description: as §1, §2, §3, §4

[10] = system: HCT-15 colon carcinoma cells; assay: MTT cytotoxicity test, HCT-15; type: cell-based, human; conditions: HCT-15, 72 h, MTT, ± S.D.
Description: as §1, §2, §3, §4

A375 cells = assay: ROS production (CM-H2DCFDA probe); type: cell-based, human; conditions: A375, 12.5 μM, compared with antimycin positive control
Description: ROS are products of normal cell metabolism but their levels can be increased upon exposure to toxic agents or interference with the cellular redox network. […] Consequently, cellular ROS levels upon treatment with equal doses (12.5 μM) of the different platinum complexes were monitored in A375 cancer cells by using the peroxide-sensitive fluorescent probe CM-H2DCFDA (5-(and-6)-chloromethyl-2′,7′-dichlorodihydrofluorescein diacetate, acetyl ester). Antimycin, a classical inhibitor of the mitochondrial respiratory chain at the level of complex III, was used as a positive control.
Figure 8 ROS production in A375 cells. Cells were preincubated in PBS/10 mM glucose medium for 20 min at 37 °C in the presence of 10 μM CM-DCFDA and then treated with equimolar doses (12.5 μM) of indole propionic acid Pt(IV) derivatives (panel A) or indole acetic acid Pt(IV) derivatives (panel B). The fluorescence of DCF was measured.
The production of ROS was measured in A375 cells (10^4 per well) grown for 24 h in 96-well plates in DMEM medium without phenol red (Sigma Chemical Co.). Cells were then washed with PBS and loaded with 10 μM 5-(and-6)-chloromethyl-2′,7′-dichlorodihydrofluorescein diacetate, acetyl ester (CM–H2DCFDA) (Molecular Probes-Invitrogen) for 25 min in the dark. Afterwards, cells were washed with PBS and incubated with increasing concentrations of the tested complexes. The fluorescence increase was estimated with a plate reader (Fluoroskan Ascent FL, Labsystem, Finland) at 485 (excitation) and 527 nm (emission). Antimycin (3 μM, Sigma Chemical Co.), a potent inhibitor of Complex III in the electron transport chain, was used as positive control.

[11] = system: nuclear DNA of A375 cells; assay: Nuclear DNA platination (GF-AAS); type: cell-based, human; conditions: A375, 5 μM, 24 h
Description: It is well known that the main cellular target of platinum complexes is the DNA, and platination of nuclear DNA is a critical step in triggering the death of cancer cells by platinum-based drugs. On this basis, the amount of platinum bound to nuclear DNA was also assessed in A375 cells treated with the tested Pt(IV) complexes. Cells were treated for 24 h with 5 μM of the tested complexes, the nuclear DNA was isolated and the amount of Pt in each sample was determined by means of GF-AAS analysis. The results expressed as pg Pt/ng DNA are depicted in Fig. 7. […] In particular, 1P led to a roughly 60-fold higher DNA platination level with respect to cisplatin.
A375 cells (3 × 10^6) were seeded in 10 cm Petri dishes in 10 mL of culture medium. Subsequently, cells were treated with the tested complexes (5 μM) for 24 h. The DNA was extracted and purified by a commercial spin column quantification kit (Qiagen DNeasy Blood and Tissue Kit). Only highly purified samples (A260/A230 ≅ 1.8 and […]) were included for analysis to avoid any artifacts. The samples were completely dried and re-dissolved in 200 μL of Milli-Q water (18.2 MΩ) for at least 20 min at 65 °C in a shaking thermo-mixer, mineralized and analyzed for total Pt content by GF-AAS as described above.

A375 melanoma cells [12] = assay: Cellular accumulation of Pt (GF-AAS); type: cell-based, human

| Compound | IC50 ([1]; MTT, ± S.D.) [µM] | IC50 [2] [µM] | IC50 [3] [µM] | IC50 (A375 melanoma cells [4]; A375, 72 h) [µM] | IC50 [5] [µM] | RF (resistance factor) [5] | IC50 [6] [µM] | IC50 ([7]; A431, 72 h) [µM] | Log P (octanol/water) [8] | IC50 ([9]; MCF-7, 72 h) [µM] | IC50 [10] [µM] | ROS production (in words) (A375 cells) | DNA platination (in words) [11] | also measured |
| --- | --- | --- | --- | --- | --- | --- | --- | --- | --- | --- | --- | --- | --- | --- |
| N.N.O=C(CCc1c[nH]c2ccccc12)[O][Pt]([Cl])([Cl])[O]C(=O)CCc1c[nH]c2ccccc12 [Complex 2P] | 2.87 ± 1.59 | 2.56 ± 0.65 | 4.9 | 1.35 ± 0.75 | 2.91 ± 0.64 | 0.4 | 8.37 ± 2.12 | 3 ± 0.35 | −0.051 ± 0.06 | 5.54 ± 0.67 | 14 ± 1.56 |  |  |  |
| N.N.O=C(Cc1c[nH]c2ccccc12)[O][Pt]([Cl])([Cl])[O]C(=O)Cc1c[nH]c2ccccc12 [Complex 2A] | 3.75 ± 1.31 | 3.32 ± 0.21 |  | 1.85 ± 0.23 | 3.44 ± 0.59 | 0.3 | 11 ± 2.14 | 13.3 ± 0.84 | −0.068 ± 0.07 | 3.7 ± 0.29 | 25.2 ± 0.89 | less effective compared to the positive control |  |  |
| CC(=O)[O][Pt]([NH2])([NH2])([Cl])([Cl])[O]C(=O)CCc1c[nH]c2ccccc12 [Complex 5P] | 3.62 ± 0.18 | 19.5 ± 0.68 | 11.1 | 3.15 ± 0.02 | 21.9 ± 2.48 | 1.2 | 18 ± 1.33 | 5.35 ± 2.11 | −0.080 ± 0.04 | 21.01 ± 0.06 | 14.03 ± 0.14 |  | least effective |  |
| N.N.[Cl][Pt][Cl] [cisplatin] | 12.6 ± 0.81 | 10.2 ± 1.65 | 8.33 | 2.06 ± 1.01 |  | 10.5 | 2.26 ± 1.06 | 1.96 ± 0.84 |  | 7.6 ± 2.96 | 15.5 ± 2.48 |  |  |  |
| O=C(O)CCc1c[nH]c2ccccc12 [IPA, indole-3-propionic acid, reference compound] |  |  |  |  |  |  |  |  |  |  |  | no effect on cellular basal ROS levels |  | IC50 ([1]; Homo sapiens): > 50 µM; IC50 ([2]; Homo sapiens, BXPC-3): > 50 µM; cytotoxic effect (in words) ([3]; free ligands): did not elicit any significant cytotoxic effect; IC50 (A375 melanoma cells [4]; Homo sapiens, A-375, A375, 72 h): > 50 µM; IC50 ([7]; Homo sapiens, A-431, A431, 72 h): > 50 µM; IC50 ([9]; Homo sapiens, MCF7, MCF-7, 72 h): > 50 µM; IC50 ([10]; Homo sapiens): > 50 µM |
| [NH2][Pt]([NH2])([Cl])([Cl])([O]C(=O)CCC(=O)O)[O]C(=O)CCc1c[nH]c2ccccc12 [Complex 4P] | 11.8 ± 1.06 | > 50 | 30.4 | 8.66 ± 4.03 | > 50 |  | > 50 | 29.2 ± 4.19 | −0.100 ± 0.05 | 40.56 ± 0.08 | 42 ± 1.92 |  | least effective | cellular platinum accumulation (in words) (A375 melanoma cells [12]; A375, 1.5 and 3 μM, 6 and 24 h): lowest platinum accumulation; cellular uptake level, times lower than cisplatin (A375 melanoma cells [12]; A375, GF-AAS): about 7 |
